According to patent US20120202272A1, “LIGE-TYPE SYSTEMS FOR BIOCONVERSION OF LIGNIN-DERIVED COMPOUNDS” (priority 2010, published 2012):

Columns and labels:
Escherichia coli = conditions: stated as demonstrated; cited from earlier work
[1] = in vitro biochemical assay for beta-etherase activity on fluorescent substrate MUAV (4MU formation, clarified E. coli cell extracts)
From the text: The model substrate synthesis 150 for use in the biochemical screening for selective activity can be outsourced through a contract research organization (CRO). The enzyme discovery effort can initially be focused on identifying potential beta-etherase candidate genes identified through bioinformatic methods. […] The fluorescent substrate α-O-(β-methylumbelliferyl)acetovanillone (MUAV), for example, can be used in in vitro assays to identify beta-etherase function (Acme Biosciences, Mt. View, Calif.). The formation of 4 methylumbelliferone (4MU) upon hydrolysis of the aryl ether bond can be monitored by fluorescence, for example, at λex=365 nm and λem=450 nm (or 460 nm).
The enzyme screening 155 is done to identify novel etherases 160. […] Expression of the beta-etherase genes can be done in 5 ml or 25 ml samples of the recombinant E. coli strains in LB medium using induction with IPTG. Following induction, and cell harvest, cell pellets can be lysed using the BPER (Invitrogen) cell lysis system. […] The formation of 4 methylumbelliferone (4MU) upon hydrolysis of the aryl ether bond in MUAV can be monitored by fluorescence at λex=365 nm and λem=460 nm, and can provide quantitative measurement of beta-etherase function. Cell extracts of E. coli transformed with the S. paucimobilis ligE and ligF genes can be the assay positive controls. Test or unknown samples can include, for example, E. coli strains expressing putative beta-etherase genes from N. aromaticovorans.
This example describes a method for gene expression in E. coli, as well as beta-etherase biochemical assays. Expression of known and putative beta-etherase genes was performed using 5 ml cultures of the recombinant E. coli strains described herein in Luria Broth medium by induction of gene expression using isopropylthiogalactoside (IPTG) to a final concentration of 0.1 mM. Following induction, and cell harvest, the cells were disrupted using either sonication or the BPER (Invitrogen) cell lysis system.
In vitro reactions were performed in a total volume of 200 ul and contained: 25 mM TrisHCl pH 7.5; 0.5 mM dithiothreitol; 1 mM glutathione; 0.05 mM or 0.1 mM MUAV; 10 ul of clarified cell extract used to initiate the reactions. Following incubation for 2.5 hours at room temperature, a 50 ul sample of the reactions was terminated using 150 uL of 300 mM glycine/NaOH buffer pH 9. The formation of 4 methylumbelliferone (4MU) upon hydrolysis of the aryl ether bond was monitored by the increase in fluorescence at λex=360 nm and λem=450 nm using a Spectramax UV/visible/fluorescent spectrophotometer.
The total protein concentrations of the cell lysates were determined using the BCA reagent system for protein quantification (Pierce).
Induction might be also performed using IPTG concentrations in the range of 0.01-1 mM. Cell disruption might be also performed using toluene permeabilization, French pressure techniques, or using multiple freeze/thaw cycles in conjunction with lysozyme. Assay conditions might be varied to include TrisHCl at 10-150 mM concentrations and in the pH range of 6.5-8.5; 0-2 mM dithiothreitol; 0.05-2 mM glutathione; 0.01-5 mM MUAV substrate; 22-42° C. reaction temperatures. The biochemical assay might be performed as a fixed time point assay with reaction times ranging from 5 minutes-12 hours, or performed continuously without quenching with glycine/NaOH buffer to extract enzyme kinetic parameters.

[2] = reactions containing 0.1 mM MUAV substrate, E. coli cell extracts
[3] = MUAV substrate, concentration not given

COc1cc(O)cc(OC)c1C=O [4-hydroxy-2,6-dimethoxybenzaldehyde]
antibacterial activity against Escherichia coli (Escherichia coli): antibacterial activity

O=Cc1c(O)cc(O)cc1O [2,4,6-trihydroxybenzaldehyde]
antibacterial activity against Escherichia coli (Escherichia coli): antibacterial activity

COc1cccc(C=O)c1O [2-hydroxy-3-methoxybenzaldehyde]
antibacterial activity against Escherichia coli (Escherichia coli): antibacterial activity

O=Cc1ccc(O)cc1O [2,4-dihydroxybenzaldehyde]
antibacterial activity against Escherichia coli (Escherichia coli): antibacterial activity

COc1ccc(O)c(C=O)c1 [2-hydroxy-5-methoxybenzaldehyde]
antibacterial activity against Escherichia coli (Escherichia coli): antibacterial activity

O=Cc1cc(O)ccc1O [2,5-dihydroxybenzaldehyde]
antibacterial activity against Escherichia coli (Escherichia coli): antibacterial activity

O=Cc1ccc(O)c(O)c1O [2,3,4-trihydroxybenzaldehyde]
antibacterial activity against Escherichia coli (Escherichia coli): antibacterial activity

O=Cc1cccc(O)c1O [2,3-dihydroxybenzaldehyde]
antibacterial activity against Escherichia coli (Escherichia coli): antibacterial activity

O=Cc1ccccc1O [2-hydroxybenzaldehyde]
antibacterial activity against Escherichia coli (Escherichia coli): antibacterial activity

B1: ligE: S. paucimobilis ligE beta-etherase, positive control polypeptide (protein)
chain: MARNNTITLYDLQLESGCTISPYVWRTKYALKHKGFDIDIVPGGFTGILERTGGRSERVPVIVDDGEWVLDSWVIAEYLDEKYPDRPMLFEGPTQKNLMKFLDNWLWSTAVGPWFRCYILDYHDLSLPQDRDYVRWSREQWFLGGQRLEDVQAGREDRLPLVPPTLEPFRRILAETKWLGGDQPNFADYSALAVFLWTASVARTPPLTEDDPLRDWLDRGFDLFDGLGRHPGMNPLFGLKLREGDPEPFVRQTGPAGAGGQALNKGPQTTKMPPRVAEKAD
total activity (beta-etherase) [1, 2]: 7 rfu/ug

B2: LigF2: N. aromaticivorans beta-etherase polypeptide, glutathione S-transferase-like protein, GenBank ABD27301.1 (protein)
chain: MALKYYHAEPLANSLKSMVPLKEKGLAYESIYVDLHKFEQHQPWFTAINPEGQVPVLDHDGTIITHTTVINEYLEDAFPDAQPADAPLRPRDPVGAARMRYWNKFIDEHVMNYVSMHGWHRMVGVIARNIASGDFEKLLESIPLPDQRKKWATARSGFSEADLANATAKIEYALDKVEKQLGETKWLAGDTYTLADINFYSHCGAMVERMFPEMEVARRAPRLCEWRDRVAARPAVAEALKSEDRTAPGLRVWSGEVR
efficiency relative to S. paucimobilis LigF protein ([1]; MUAV substrate): approximately 2 fold
total activity (beta-etherase) [1, 3]: 1206 rfu/ug

B3: LigF: S. paucimobilis LigF beta-etherase, positive control polypeptide (protein)
chain: MTLKLYSFGPGANSLKPLATLYEKGLEFEQVFVDPSKFEQHSDWFKKINPRGQVPALWHDGKVVTESTVICEYLEDVFPESGNSLRPADPFKRAEMRVWTKWVDEYFCWCVSTIGWAFGIKAIAQKMSDEEFEEHINKNVPIPEQQLKWRRARNGFPQEMLDEEFRKVGVSVARLEETLSKQDYLVDTGYSLADICNFAIANGLQRPGGFFGDYVNQEKTPGLCAWLDRINARPAIKEMFEKSKREDLLKRQNEKVA
total activity (beta-etherase) [1, 3]: 558 rfu/ug

B4: ligE1: N. aromaticivorans beta-etherase polypeptide, glutathione S-transferase-like protein, GenBank ABD26841.1 (protein)
chain: MAANNTITFYDLALSTGATISPFVWATKYALKHKGFDLDVVPGGFTGILERTGGKTERLPAIVDDGEFVLDSWGIVEYLDAKYPDRPVLIPHESVAATLKALDNWFWNAAVGPWMFCFCQDYRDLSLPQDHEYVTHSREKMLGRKLEEVQAGREERLPKISAALEPLRAALAQHQWLGGSSPNYADYRIMGGILFTASVCKTPVLANDDPLRDWIERCLDLYGGLGRHPGLFPLFGLEQREGDPDLFNRAAGQGGIYKRNTGPESTRAETQRITEGMKK
beta-etherase activity (in words) ([1]; MUAV substrate): beta-etherase activity
efficiency relative to S. paucimobilis ligE beta-etherase enzyme ([1]; MUAV substrate): approximately 75 fold
total activity (beta-etherase) [1, 2]: 529 rfu/ug
